Reference: US20020065314A1, “COMPOSITIONS AND METHOD FOR STIMULATING HAIR GROWTH” (priority 1995, published 2002)
“Also recorded” adds a separate entry of the source. Like-named read-outs stand apart in the source and are kept apart here.

Assays:
C57BL/KsJ db/+ mice [1] = test: Subdermal application by subcutaneous injection; assay type: in vivo, mouse
Experimental: In another example, 20 μl of n-butyl cyanoacrylate was applied subdermally by subcutaneous injection to a group of C57BL/KsJ db/+ mice.

NIH/3T3 fibroblasts = test: Fibroblast cell proliferation assay with extracts of treated skin; assay type: cell-based
Experimental: A single topical application of 20 mg of n-butyl cyanoacrylate was made to an area of shaved skin on the dorsum of strain C57BL/KsJ db/+ mice. At days 10 and 20 post-treatment, skin samples were excised from treated areas. Skin tissue was frozen in dry ice, minced, homogenized in ice-cold PBS, and centrifuged at 15,000 g for 30 minutes at 4° C. The protein concentration of supernatants was adjusted to 1.0 mg/ml by the BioRad assay procedure (BioRad Laboratories, Richmond, Calif.). Skin samples from untreated areas of the same strain were harvested and processed identically. Mouse serum albumin was prepared at a concentration of 1.0 mg/ml in PBS as a control. An aliquot of each supernatant extract was fractionated according to size with a nominal 30 kilo Dalton (kDa) cutoff, and the low molecular weight fraction (≦30 kDa) was included in the fibroblast cell proliferation assay, as follows.
The supernatant extracts from treated and untreated skin samples, and mouse serum albumin control, were added to a quartet of wells in a 96 well plate, and 2-fold serially diluted 11 times. NIH/3T3 fibroblasts (ex American Type Culture Collection, Rockville, Md.) were harvested at about 80% confluence, seeded into each well at a density of 5,000 cells per well, and supplemented with serum-free assay medium (QBSF 56, Quality Biological Inc., Gaithersburg, Md.). Cell proliferation was determined according to the protocol of the CellTitre 96 Non-Radioactive Cell Proliferation Assay (Promega, Madison, Wis.).

Sprague Dawley rats = test: Single topical application, hair growth in rats; assay type: in vivo, rat
Text: (§1) At the gross level, the hair growth in the shaved treated area occurs at 8-12 days and reaches full length at about 14-20 days post treatment, however, the remainder of the shaved untreated area remains hairless and the hair follicles small (in telogen (resting) phase)(5A-5B). The response of hair growth to the n-butyl cyanoacrylate stimulus is very similar in 6 other strains of mice (C57BL/KsJ +/+, C57BL/KsJ db/db, Balb/cBYj +/+, Balb/cBYj nu/+, HRS/J hr/+, and RHJ/LeJ hr^rh-j/+) (FIGS. 6A-6C) and Sprague Dawley rats (FIGS. 7A-7B). The hair growth rate in the fastest growth period (at about 10-15 days post treatment) reaches 1 mm per day. This is entirely consistent with the microscopically observed stimulation of hair follicles following treatment.

C57BL/KsJ db/+ mice [2] = conditions: for hair growth on dorsum (photograph): 31 days post application
Experimental: The induction of hair loss following treatment with certain anticancer drugs, such as cyclophosphamide or doxorubicin, is well documented (A. Tierney & J. Taylor (1991) Nurs. Stand 5:29-31; R. R. Love, et al. (1989) Cancer 63:604-612; B. W. Cline (1984) Cancer Nurs. 7:221-228). The following experiment was performed to determine the effect of n-butyl cyanoacrylate on hair regrowth in mice pre-treated with cyclophosphamide or doxorubicin. Twenty mice of strain C57BL/KsJ db/+ were peritoneally injected with either cyclophosphamide in PBS (20 mg per kilogram of body weight) or Doxorubicin in PBS (2 mg per kilogram of body weight) for 10 consecutive days. Then a single 10 μl dose of n-butyl cyanoacrylate was applied topically to an area of the shaved dorsum of each animal. Control mice, which were injected with PBS alone, were treated similarly. The effects of hair regrowth were determined both by phototrichogram (macroscopic observation using photography) and by folliculogram (microscopic observation of histological changes in the treated and untreated skin).

[3] = tested on: C57BL/KsJ db/+ mice and 6 other strains of mice; test: Single topical application to shaved dorsum of mice: cutaneous changes and hair growth; assay type: in vivo, mouse
Text: The dorsal aspect of C57BL/KsJ db/+ female mice was shaved and a single topical dose of n-butyl cyanoacrylate (formulated as Nexaband^R Liquid) was applied. […] At this early stage some of these new aggregates form laminae and appear to constitute neo-angiogenesis. At day 1 post application, the gross appearance of inflammation was still apparent, and there was microscopic evidence for the formation of a lumen from an aggregate of cells in the subcutaneous layer. […] These changes were only observed in the treated area. […] Between eight and 12 days post application, hair follicles and new hair were present at the sites of application; the remainder of the shaved area remained hairless. Epidermal and dermal thickening and new hair follicle development in treated skin were pronounced until days 10-20 post application (FIGS. 3A-3B), at which time large mature hair follicles traversed the entire thickness of the dermis and subcutaneous layer (FIG. 3C). Hair follicle density reached a maximum level at about days 20-30 post application, at which time the epithelium and connective tissue elements began to return to their pre-treatment appearance (FIGS. 4A-4B).
as §1

[4] = C57BL/KsJ db/+, post application

SMILES: C=C(C#N)C(=O)OCCCC [n-butyl cyanoacrylate]
- reproducibility of hair growth induced (mice and rats; 10 mg/10 μl cm^−2, more than 700 normal adult mice and rats, and 80 diabetic (db/db) animals): 100%
- side effect, toxic effect or tumor-like tissue formation after the treatment (mice and rats; in vivo): No any side effect or toxic effect or tumor-like tissue formation after the treatment has been observed except for a mild inflammation shortly after application
- hair growth in normal intact skin, in skin of animals pre-treated with anticancer drugs, and at edges of wounds (mice and rats; two species (rat and mouse), seven strains of mouse): stimulate hair growth
- histology after subcutaneous injection (C57BL/KsJ db/+ mice [1]; 68 days after subcutaneous injection): development of new hair follicles in the treated site
- histology after subcutaneous injection vs untreated site (C57BL/KsJ db/+ mice [1]; subcutaneous injection, 20 μl): induces de novo hair follicle formation and the thickening of full-thickness skin
- activity of extract from skin harvested at 20 days post-treatment vs 10 days (NIH/3T3 fibroblasts): more active than the extract from skin harvested at 10 days post-treatment
- activity of protein extracts of treated skin vs extract of untreated skin (NIH/3T3 fibroblasts; skin treated topically with 20 mg, harvested days 10 and 20): more active in stimulating proliferation of NIH/3T3 cells
- activity of low molecular weight fraction (30 KDa or less) of skin extract (NIH/3T3 fibroblasts; treated and untreated skin): no discernible effect on cell proliferation; also recorded: filtration step removes stimulation
- histology, hair follicle density treated vs untreated area (Sprague Dawley rats; Sprague Dawley rat): much higher density of hair follicles in treated area
- hair growth on dorsum (photograph) (Sprague Dawley rats; Sprague Dawley rat, 23 days post application): hair growth appears as a rectangle pattern
- time over which no shedding of induced hair has been found (Sprague Dawley rats; rats, post treatment): over 210 days
- time new hair remained (until sacrifice) (C57BL/KsJ db/+ mice [2]; animals pre-treated with cyclophosphamide, after treatment): ≥ 335 days
- time of growing to full length (C57BL/KsJ db/+ mice [2]; mice pre-treated with cyclophosphamide, doxorubicin and PBS, post treatment): 15 to 18 days
- beginning of hair regrowth in treated areas (C57BL/KsJ db/+ mice [2]; mice pre-treated with cyclophosphamide, doxorubicin and PBS, single 10 μl topical dose, post treatment): 8 to 11 days
- hair growth on dorsum (photograph) (C57BL/KsJ db/+ mice [2]; pre-treated with cyclophosphamide): profound growth of new unpigmented gray hairs in the treated area
- hair growth on dorsum (photograph) (C57BL/KsJ db/+ mice [2]; pre-treated with doxorubicin): profound growth of hair with normal pigmentation in the treated area
- response of hair growth compared with C57BL/KsJ db/+ ([3]; 6 other strains of mice and Sprague Dawley rats): very similar
- hair growth on dorsum (photograph) ([3]; Balb/cBYj nu/+, 19 days post application): hair growth appears in a circle pattern
- hair follicle number, maximum increase treated vs untreated areas ([3]; C57BL/KsJ db/+): about 2 fold
- histology of treated skin ([3]; C57BL/KsJ db/+, 16 days following application): large mature hair follicles traversing the entire thickness of the skin
- hair growth on dorsum (photograph) ([3]; C57BL/KsJ db/+, 17 days post application): triangle pattern of hair growth
- histology of treated skin vs adjacent untreated area ([3]; C57BL/KsJ db/+, 19 days after topical treatment): high concentration of large mature hair follicles
- scanning electron micrograph, treated vs adjacent untreated area ([3]; C57BL/KsJ db/+, 23 days after treatment): higher density of hairs and deeper hair roots in the treated area
- histology of treated skin ([3]; C57BL/KsJ db/+, day 3 post application): multilayered epidermis, thickened dermis, and epidermal peg elongation; also recorded: evidence of trichogenesis was clearly seen at the treatment site
- histology of treated skin ([3]; C57BL/KsJ db/+, day 10 post application): increase in the number of mature hair follicles; also recorded: new epithelial pegs had developed into mature hair follicles
- thickness of the dermis layer, increase treated vs untreated areas ([3]; C57BL/KsJ db/+, days 16-20 post treatment): 1.5 fold
- thickness of the dermis layer, treated vs untreated areas ([3]; C57BL/KsJ db/+, first day after treatment): about 1.3 fold
- time of maximum hair follicle density [3, 4]: 20 to 30 days
- time until which epidermal and dermal thickening and new hair follicle development were pronounced [3, 4]: 10 to 20 days
- time at which dermis returns to normal thickness ([3]; C57BL/KsJ db/+, post treatment): about 70 days
- time at which epidermis returns to normal thickness ([3]; C57BL/KsJ db/+, post treatment): about 40 days
- time at which hair reaches full length ([3]; C57BL/KsJ db/+, post treatment): 14 to 20 days
- thickness of the epidermis layer, maximum increase in treated areas vs maximum level in untreated areas ([3]; C57BL/KsJ db/+, topical): about 2 fold
- early change of treated skin ([3]; C57BL/KsJ db/+, within six hours of application): slight thickening of the treated skin
- time at which new hair follicle formation occurs in treated area ([3]; after treatment): 2 to 3 days
- hair growth rate in the fastest growth period ([3]; at about 10-15 days post treatment): 1 mm per day
- hair growth on dorsum (photograph) ([3]; diabetic C57BL/KsJ db/db, 27 days post application): hair growth appears in a rectangle pattern
- hair follicle number, maximum in treated vs untreated areas ([3]; diabetic strain C57BL/KsJ db/db): about 4 fold
- time hair regrowth in treated areas remains unchanged while shaved untreated areas are hairless ([3]; genetically healing-impaired diabetic mice, post treatment): more than 216 days
- time over which no shedding of induced hair has been found ([3]; mice, post treatment): > 335 days
- length of new hairs over those in adjacent untreated area ([3]; mouse, in vivo): 1-2 mm
- localization of the hair growth response ([3]; mouse, in vivo): completely localized to the area where the stimulator is applied
- time at which hair growth occurs (is seen) in shaved treated area ([3]; post treatment, single topical dose): 8 to 12 days
- hair regrowth after repeated shaving ([3]; single application, area subsequently shaved three times at 20-day intervals): the hair keeps regrowing in the treated areas
